Data published in ChEMBL document CHEMBL5360586, “Purpurascenines A-C, Azepino-Indole Alkaloids from Cortinarius purpurascens: Isolation, Biosynthesis, and Activity Studies on the 5-HT2A Receptor” (J Nat Prod, 2023).
Activity calls are given as the source filed them. No cut-off for these calls is given here.

What was measured:
HCT-116 [1] = assay: Antiproliferative activity against human HCT-116 cells assessed as inhibition of cell growth upto 100 uM measured after 48 hrs by resazurin staining based analysis; type: functional
PC-3 [2] = assay: Antiproliferative activity against human PC-3 cells assessed as inhibition of cell growth upto 100 uM measured after 48 hrs by resazurin staining based analysis; type: functional
MCF7 [3] = assay: Antiproliferative activity against human MCF7 cells assessed as inhibition of cell growth upto 100 uM measured after 48 hrs by resazurin staining based analysis; type: functional
[4] = target: T1, 5-hydroxytryptamine receptor 2A (Homo sapiens, UniProt P28223); assay: Agonist activity at N-terminal HA-tagged human 5HT2A receptor transfected in CHO-K1 cells co-expressing C-terminal EYFP measured for 5.5 hrs by ONE-Glo reagent based luciferase assay; type: functional, cell-based
HCT-116 [5] = assay: Antiproliferative activity against human HCT-116 cells assessed as inhibition of cell growth measured after 48 hrs by resazurin staining based analysis; type: functional; settings: HCT-116, 48 h
PC-3 [6] = assay: Antiproliferative activity against human PC-3 cells assessed as inhibition of cell growth measured after 48 hrs by resazurin staining based analysis; type: functional; settings: PC-3, 48 h
MCF7 [7] = assay: Antiproliferative activity against human MCF7 cells assessed as inhibition of cell growth measured after 48 hrs by resazurin staining based analysis; type: functional; settings: MCF7, 48 h
PC-3 [8] = assay: Antiproliferative activity against human PC-3 cells assessed as inhibition of cell growth at 100 uM measured after 48 hrs by resazurin staining based analysis; type: functional; design: scale not given: the % may be the effect or the level left
[9] = target: T1, 5-hydroxytryptamine receptor 2A; assay: Agonist activity at N-terminal HA-tagged human 5HT2A receptor transfected in CHO-K1 cells co-expressing C-terminal EYFP assessed as maximal efficacy at 10^-4 M measured for 5.5 hrs in presence of serotonin by ONE-Glo reagent based luciferase assay; type: functional, cell-based; settings: filed as agonist, dose 0.0001 M
[10] = target: T1, 5-hydroxytryptamine receptor 2A; assay: Agonist activity at N-terminal HA-tagged human 5HT2A receptor transfected in CHO-K1 cells co-expressing C-terminal EYFP measured for 5.5 hrs in presence of serotonin by ONE-Glo reagent based luciferase assay; type: functional, cell-based
[11] = target: T1, 5-hydroxytryptamine receptor 2A; assay: Agonist activity at N-terminal HA-tagged human 5HT2A receptor transfected in CHO-K1 cells co-expressing C-terminal EYFP assessed as maximal efficacy at 10^-11 M to 10^-5 M measured for 5.5 hrs by ONE-Glo reagent based luciferase assay relative to control; type: functional, cell-based

T1 sequence (P28223 whole entry): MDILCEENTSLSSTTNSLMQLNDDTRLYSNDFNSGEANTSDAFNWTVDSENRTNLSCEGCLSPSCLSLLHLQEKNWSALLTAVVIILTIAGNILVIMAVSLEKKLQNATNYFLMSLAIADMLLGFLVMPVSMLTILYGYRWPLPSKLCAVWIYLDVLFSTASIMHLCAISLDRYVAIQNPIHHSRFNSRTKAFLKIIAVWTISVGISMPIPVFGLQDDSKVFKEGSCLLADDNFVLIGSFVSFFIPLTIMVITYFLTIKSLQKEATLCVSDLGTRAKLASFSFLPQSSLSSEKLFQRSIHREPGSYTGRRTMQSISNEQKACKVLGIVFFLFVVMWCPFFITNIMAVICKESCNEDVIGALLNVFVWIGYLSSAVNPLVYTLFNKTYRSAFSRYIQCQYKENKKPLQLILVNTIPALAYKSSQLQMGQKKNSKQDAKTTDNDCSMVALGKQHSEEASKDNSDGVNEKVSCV

**Q.** For `NCCc1c[nH]c2ccc(O)cc12`, which Activity (HCT-116 [1]) is on record?
**A.** inactive

**Q.** What about the Activity (PC-3 [2]) of the same compound?
**A.** inactive

**Q.** And the Activity (MCF7 [3])?
**A.** inactive

**Q.** What does the source list for `CC1=N[C@H](C(=O)O)Cc2c[nH]c3c(O)ccc1c23`?
**A.** EC50 [4]: > 10 µM; IC50 (HCT-116 [5]): > 100 µM; IC50 (PC-3 [6]): > 100 µM; IC50 (MCF7 [7]): > 100 µM; Activity (PC-3 [8]): ~30%; Emax [9]: 52%; EC50 [10]: 25.4 nM; Emax [11]: 22%
